Among the data in ChEMBL document CHEMBL1128847, “Inhibition of matrix metalloproteinases by N-carboxyalkyl peptides containing extended alkyl residues At P1'” (Bioorg Med Chem Lett, 1995) are Ki values, retold here.

Assay [1] deals with 72 kDa type IV collagenase (Homo sapiens, UniProt P08253). The experiment in a line: Inhibition of human gelatinase A (MMP-2).
In the next assay the target is Stromelysin-1 (Homo sapiens, UniProt P08254).
For the next assay, the target named is T1, Interstitial collagenase (Homo sapiens, UniProt P03956).
T1 sequence (P03956 whole entry): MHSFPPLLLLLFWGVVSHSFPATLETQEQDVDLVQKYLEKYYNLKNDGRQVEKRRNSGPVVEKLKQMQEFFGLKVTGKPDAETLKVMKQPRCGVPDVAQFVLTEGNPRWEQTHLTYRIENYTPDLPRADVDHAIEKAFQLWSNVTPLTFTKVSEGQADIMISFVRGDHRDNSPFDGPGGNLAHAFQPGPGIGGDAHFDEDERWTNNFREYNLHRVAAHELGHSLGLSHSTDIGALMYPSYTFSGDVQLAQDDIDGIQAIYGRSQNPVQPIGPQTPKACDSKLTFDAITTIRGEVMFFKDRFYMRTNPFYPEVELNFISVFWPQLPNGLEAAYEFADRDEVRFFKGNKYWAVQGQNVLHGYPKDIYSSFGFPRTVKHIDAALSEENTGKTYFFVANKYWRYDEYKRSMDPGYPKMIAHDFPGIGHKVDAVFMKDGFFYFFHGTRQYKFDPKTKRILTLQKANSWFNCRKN
The experiment in a line: Inhibition of human fibroblast collagenase (MMP-1).

Chain of Stromelysin-1 (P08254 whole entry): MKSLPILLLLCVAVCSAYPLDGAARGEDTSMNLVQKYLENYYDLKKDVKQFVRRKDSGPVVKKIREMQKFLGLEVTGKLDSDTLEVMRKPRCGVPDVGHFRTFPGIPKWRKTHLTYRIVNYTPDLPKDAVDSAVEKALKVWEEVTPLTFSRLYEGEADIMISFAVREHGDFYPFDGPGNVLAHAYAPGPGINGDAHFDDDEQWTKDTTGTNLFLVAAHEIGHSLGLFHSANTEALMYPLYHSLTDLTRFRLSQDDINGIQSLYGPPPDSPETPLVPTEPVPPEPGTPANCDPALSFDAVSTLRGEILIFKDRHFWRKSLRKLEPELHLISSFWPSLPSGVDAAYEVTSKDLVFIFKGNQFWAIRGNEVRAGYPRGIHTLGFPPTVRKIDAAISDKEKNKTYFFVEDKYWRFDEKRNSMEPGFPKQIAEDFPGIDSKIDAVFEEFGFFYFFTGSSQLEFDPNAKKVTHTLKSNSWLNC
Chain of 72 kDa type IV collagenase (P08253 whole entry): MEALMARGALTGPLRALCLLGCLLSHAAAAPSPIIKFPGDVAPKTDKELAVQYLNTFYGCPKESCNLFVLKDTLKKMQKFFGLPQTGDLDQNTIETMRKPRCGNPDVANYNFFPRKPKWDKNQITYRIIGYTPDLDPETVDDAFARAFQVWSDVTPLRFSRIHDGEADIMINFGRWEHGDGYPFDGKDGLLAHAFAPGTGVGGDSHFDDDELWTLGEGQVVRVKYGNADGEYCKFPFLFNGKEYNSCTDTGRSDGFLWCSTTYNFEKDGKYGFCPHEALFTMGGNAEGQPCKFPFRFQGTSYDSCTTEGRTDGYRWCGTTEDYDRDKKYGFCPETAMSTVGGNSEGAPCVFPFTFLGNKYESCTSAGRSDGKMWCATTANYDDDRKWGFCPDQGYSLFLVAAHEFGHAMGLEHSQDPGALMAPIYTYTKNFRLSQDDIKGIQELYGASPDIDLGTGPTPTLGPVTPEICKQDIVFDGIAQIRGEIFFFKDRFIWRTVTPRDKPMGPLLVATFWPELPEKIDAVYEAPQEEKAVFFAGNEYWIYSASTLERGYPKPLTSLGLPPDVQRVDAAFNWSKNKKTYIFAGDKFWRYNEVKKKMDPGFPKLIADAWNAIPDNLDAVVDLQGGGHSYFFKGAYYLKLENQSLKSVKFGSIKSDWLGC
Description for Stromelysin-1: Inhibition of human fibroblast stromelysin (MMP-3)

In the case of `CCCCCCCCCC[C@H](N[C@H](C)C(=O)O)C(=O)N[C@@H](CC(C)C)C(=O)Nc1ccccc1`, the Ki in assay [1] is 560 nM; at Stromelysin-1, 850 nM; on Interstitial collagenase, more than 10000 nM.
Turning to `CC(C)C[C@H](NC(=O)[C@H](CCCCCCCCCN)N[C@H](C)C(=O)O)C(=O)Nc1ccccc1`, the Ki in assay [1] is 500 nM; on Stromelysin-1 it was 240 nM; at Interstitial collagenase, more than 10000 nM.
On the same counts, the results for `C[C@@H](N[C@@H](CCCCCCCCCN)C(=O)N[C@@H](CCCN=C(N)N)C(=O)Nc1ccccc1)C(=O)O` are 110 nM, 370 nM and more than 10000 nM.
On the same counts, the results for `CCCCCCCC[C@H](N[C@H](C)C(=O)O)C(=O)N[C@@H](CCCN=C(N)N)C(=O)Nc1ccccc1` are 120 nM, 1600 nM and more than 10000 nM.
The matching figures for `CCCCCCCC[C@H](N[C@H](C)C(=O)O)C(=O)N[C@@H](CC(C)C)C(=O)Nc1ccccc1`: 340 nM, 570 nM and more than 10000 nM.
Turning to `CC(C)C[C@H](NC(=O)[C@H](CCc1ccccc1)N[C@H](C)C(=O)O)C(=O)Nc1ccccc1` [L-696418], the Ki worked out at 200 nM in assay [1] and 760 nM on Interstitial collagenase.
